Read-outs that look alike come from different tables or passages of the source. Marks after values point to notes of the source that are not given here.
What was measured:
[1] = system: cytokines in psoriatic lesional skin; assay: Skin tape strip biomarkers (Olink Target 96 Inflammation panel) in the phase 2b psoriasis study (Example 10); format: in vivo, human; conditions: for log2FCH W16_L - BL_L, CCL3 / log2FCH W16_L - BL_L, CCL4 / log2FCH W16_L - BL_L, CCL20 / log2FCH W16_L - BL_L, CSF1 / log2FCH W16_L - BL_L, CXCL1 / log2FCH W16_L - BL_L, CXCL5 / log2FCH W16_L - BL_L, CXCL6 / log2FCH W16_L - BL_L, CXCL9 / log2FCH W16_L - BL_L, CXCL10 / log2FCH W16_L - BL_L, IFNγ / log2FCH W16_L - BL_L, IL8 / log2FCH W16_L - BL_L, IL12B / log2FCH W16_L - BL_L, IL17A / log2FCH W16_L - BL_L, IL18 / log2FCH W16_L - BL_L, IL18R1 / log2FCH W16_L - BL_L, IL. 17C / log2FCH W16_L - BL_L, MMP1 / log2FCH W16_L - BL_L, TNFRSF9 / log2FCH W16_L - BL_L, TNFSF14 / log2FCH W16_L - BL_L, TNFα / log2FCH W16_L - BL_L, TRAIL: Week 16 lesional vs baseline lesional skin
From the text: Skin tape strip samples were taken from lesional and non-lesional skin at baseline and lesional skin at week 16 of patients participating in the phase 2b, dose-ranging study assessing oral modified release orismilast in adults with moderate-to-severe plaque psoriasis (NCT05190419) described in Example 3. Approximately twenty consecutive stratum corneum samples were collected from the same skin site by tape stripping (D-squames; Monaderm DS100) of both lesional and non-lesional skin at baseline and lesional skin at week 16. To extract the proteins from the tapes the first ten tapes were pooled together and used for subsequent protein extraction by incubation in 800 μL of PBS containing 0.2% Triton X-100 together with a mixture of protease inhibitors and incubated overnight at 4° C. under stirring at 1400 rpm in a thermo mixer (Eppendorf). The insoluble material was removed by filtration on 0.22 μm filters by centrifugation. The protein extracts were analyzed using the Olink® technology (Target 96 Inflammation panel). Protein extracts from patients treated with placebo, 20 mg orismilast BID, and 30 mg orismilast BID as described in Example 3 were analyzed.
OLINK data was analyzed in R 2023.09.0+463 using a linear mixed effect model (OlinkAnalyse and Ime4) to estimate log 2 fold changes between Week 16 lesional skin versus baseline lesional skin and baseline lesional versus baseline non-lesional skin levels. P-values were corrected for multiple testing using the Benjamini-Hochberg method. The data was further modeled according to a weight-based dosing regimen in which data of the 20 mg Orismilast BID arm was used for patients with a bodyweight at baseline of <100 kg and combined with using data of the 30 mg Orismilast BID arm for patients ≥100 kg, respectively (named “P3DR”).

[2] = Clinical trial LP0058-1442 in healthy volunteers: PK of modified-release tablet vs immediate-release capsule; format: in vivo, human; conditions: for AUC(0-t): human, plasma, oral, read-out: AUClast, NCA GM (CV %)
Description: The modified-release formulation was studied in a clinical trial (LP0058-1442) and administered in a total of 36 healthy volunteers: 18 in part 1, 9 in part 2, and 9 in part 3. Twenty-seven (27) healthy volunteers received a single administration of 30 mg orismilast, and 9 subjects received multiple administrations over a period of 17 days with an up-titration up to a maximum of 60 mg BID. Part 1 of this study was to evaluate the key PK parameters of the new modified-release formulation compared to the reference capsule formulation with immediate release. Orismilast was rapidly absorbed from both formulations with median tmax values of 3.00 hours post-dose for the immediate-release capsule and 2.52 hours post-dose for the modified-release tablet. The individual tmax ranges were approximately 1 to 6 hours post-dose for the immediate-release capsule and 1 to 4 hours post-dose for the modified-release tablet. […] It can therefore be reasonably assumed that the safety profile resulting from systemic effects can be extrapolated from studies having investigated the immediate-release formulation and in particular, study LP0058-1072, a Phase 2a study including 36 patients with moderate to severe psoriasis vulgaris.
Following administration of modified release tablet as a single oral dose and after multiple doses up to 60 mg, orismilast reached a Cmax around 3 h under fasting state.

[3] = system: PDE4B and PDE4D subtype splice variants; conditions: in vitro; cited from earlier work
[4] = system: healthy volunteers; assay: Clinical trial LP0058-1442 (phase 1, NCT03812198): safety and tolerability in healthy volunteers; format: in vivo
Description: The safety, tolerability, and PK of orismilast MR and IR formulations were tested in a phase 1 clinical trial (NCT03812198) on healthy volunteers. Participants were randomised (3:1) to received orismilast MR or placebo (n=12). Orismilast MR was administered twice-daily for a total of 17 days. Orismilast MR was initiated at 10 mg twice-daily on days 1-2, increased to 20 mg twice-daily on days 3-4, to 30 mg twice-daily on days 5-6, to 40 mg twice-daily on days 7-8, to 50 mg twice-daily on days 9-10, and finally to 60 mg twice-daily on days 11-17.
Twenty-seven (27) healthy volunteers received a single administration of 30 mg orismilast, and 9 subjects received multiple administrations over a period of 17 days with an up-titration up to a maximum of 60 mg BID. Part 1 of this study was to evaluate the key PK parameters of the new modified-release formulation compared to the reference capsule formulation with immediate release.
In that study, patients received orismilast 30 mg BID immediate release or placebo for 16 weeks.

[5] = P3DR (20 mg <100 kg and 30 mg >=100 kg combined)

## O=C(Cc1c(Cl)c[n+]([O-])cc1Cl)c1ccc(OC(F)F)c2c1OC1(CCS(=O)(=O)CC1)O2 [orismilast, 2-(3,5-dichloro-1-oxidopyridin-1-ium-4-yl)-1-[7-(difluoromethoxy)-1′,1′-dioxospiro[1,3-benzodioxole-2,4′-thiane]-4-yl]ethanone]
[1]; 20 mg BID
  log2FCH W16_L - BL_L, CCL3: −2.68 ***
  log2FCH W16_L - BL_L, CCL4: −2.46 ***
  log2FCH W16_L - BL_L, CCL20: −2.53 ***
  log2FCH W16_L - BL_L, CSF1: −1.35 **
  log2FCH W16_L - BL_L, CXCL1: −1.83 *
  log2FCH W16_L - BL_L, CXCL5: −1.67 **
  log2FCH W16_L - BL_L, CXCL6: −2.34 ***
  log2FCH W16_L - BL_L, CXCL9: −2.40 ***
  log2FCH W16_L - BL_L, CXCL10: −2.20 ***
  log2FCH W16_L - BL_L, IFNγ: −1.21 *
  log2FCH W16_L - BL_L, IL8: −1.82 *
  log2FCH W16_L - BL_L, IL12B: −2.21 **
  log2FCH W16_L - BL_L, IL17A: −2.19 ***
  log2FCH W16_L - BL_L, IL18: −2.10 **
  log2FCH W16_L - BL_L, IL18R1: −1.25 **
  log2FCH W16_L - BL_L, IL. 17C: −2.49 ***
  log2FCH W16_L - BL_L, MMP1: −2.41 **
  log2FCH W16_L - BL_L, TNFRSF9: −1.45 ***
  log2FCH W16_L - BL_L, TNFSF14: −1.38 *
  log2FCH W16_L - BL_L, TNFα: −1.92 ***
  log2FCH W16_L - BL_L, TRAIL: −1.40 **
[1]; 30 mg BID
  log2FCH W16_L - BL_L, CCL3: −3.42 ***
  log2FCH W16_L - BL_L, CCL4: −2.83 ***
  log2FCH W16_L - BL_L, CCL20: −3.36 ***
  log2FCH W16_L - BL_L, CSF1: −1.97 ***
  log2FCH W16_L - BL_L, CXCL1: −2.84 ***
  log2FCH W16_L - BL_L, CXCL5: −2.26 ***
  log2FCH W16_L - BL_L, CXCL6: −3.15 ***
  log2FCH W16_L - BL_L, CXCL9: −3.32 ***
  log2FCH W16_L - BL_L, CXCL10: −2.89 ***
  log2FCH W16_L - BL_L, IFNγ: −2.02 ***
  log2FCH W16_L - BL_L, IL8: −2.76 ***
  log2FCH W16_L - BL_L, IL12B: −3.38 ***
  log2FCH W16_L - BL_L, IL17A: −2.66 ***
  log2FCH W16_L - BL_L, IL18: −3.46 ***
  log2FCH W16_L - BL_L, IL18R1: −1.99 ***
  log2FCH W16_L - BL_L, IL. 17C: −3.39 ***
  log2FCH W16_L - BL_L, MMP1: −3.30 ***
  log2FCH W16_L - BL_L, TNFRSF9: −2.03 ***
  log2FCH W16_L - BL_L, TNFSF14: −2.23 ***
  log2FCH W16_L - BL_L, TNFα: −2.48 ***
  log2FCH W16_L - BL_L, TRAIL: −2.04 ***
[1]; [5]
  log2FCH W16_L - BL_L, CCL3: −3.60 ***
  log2FCH W16_L - BL_L, CCL4: −3.14 ***
  log2FCH W16_L - BL_L, CCL20: −3.22 ***
  log2FCH W16_L - BL_L, CSF1: −1.86 ***
  log2FCH W16_L - BL_L, CXCL1: −2.34 ***
  log2FCH W16_L - BL_L, CXCL5: −2.25 ***
  log2FCH W16_L - BL_L, CXCL6: −3.02 ***
  log2FCH W16_L - BL_L, CXCL9: −3.24 ***
  log2FCH W16_L - BL_L, CXCL10: −2.94 ***
  log2FCH W16_L - BL_L, IFNγ: −1.91 ***
  log2FCH W16_L - BL_L, IL8: −2.42 ***
  log2FCH W16_L - BL_L, IL12B: −3.09 ***
  log2FCH W16_L - BL_L, IL17A: −2.66 ***
  log2FCH W16_L - BL_L, IL18: −2.96 ***
  log2FCH W16_L - BL_L, IL18R1: −1.83 ***
  log2FCH W16_L - BL_L, IL. 17C: −3.20 ***
  log2FCH W16_L - BL_L, MMP1: −3.31 ***
  log2FCH W16_L - BL_L, TNFRSF9: −1.98 ***
  log2FCH W16_L - BL_L, TNFSF14: −2.08 ***
  log2FCH W16_L - BL_L, TNFα: −2.50 ***
  log2FCH W16_L - BL_L, TRAIL: −1.91 ***
[1]; oral orismilast for 16 weeks, 20 mg BID and 30 mg BID
  expression of key disease driving cytokines in psoriatic lesions: significantly reduced
[2]; 10 mg, 1442 - Part 3 (D1 = 10 mg), N 9
  AUC(0-t): 112 ng·h/mL
[2]; 30 mg, 1442 - Part 1 (MR, 30 mg), N 18
  AUC(0-t): 482 ng·h/mL
[2]; 30 mg, 1442 - Part 2 (Fast, 30 mg), N 9
  AUC(0-t): 480 ng·h/mL
[2]; 60 mg, 1442 - Part 3 (D17 = 60 mg), N 9
  AUC(0-t): 763 ng·h/mL
[2]; modified release tablet
  systemic exposure with high-fat meals: significant increase
[3]
  inhibition of PDE4B and PDE4D subtype splice variants: potent inhibitor
[4]; 40-mg dose level
  number of adverse events of headache at the 40-mg dose level: 6
[4]; dose equal or lower to 40 mg
  number of participants with nausea at a dose equal or lower to 40 mg: 2
[4]; modified-release tablet, healthy volunteers
  maximal tolerated dose: 40 mg BID
[4]; subjects receiving orismilast, up-titration up to 60 mg BID
  number of adverse events of headache: 14
[4]; up-titration up to 60 mg BID, 9 subjects
  number of subjects with nausea: 5
